Results taken from US11492359B2, “Near-infrared nerve-sparing fluorophores” (OREGON HEALTH & SCIENCE UNIVERSITY, priority 2018, dated 2022).

Key:
[1] = UV-Vis absorption and fluorescence spectroscopy of the Oxazine library; assay type: physicochemical; details: for Extinction coefficient: Beer's Law plots; for Quantum yield: relative, references Oxazine 1, Oxazine 170, Rhodamine 101
How it was run: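 Absorbance measured at room temperature in 1-cm quartz cuvette, reference corrected; extinction coefficient from Beer's Law plots of absorbance vs concentration. Fluorescence spectra corrected for PMT response; relative quantum yields averaged over multiple measurements against Oxazine 1, Oxazine 170 and Rhodamine 101 references.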

nerve and muscle tissue = experiment: Ex vivo tissue staining nerve-specificity screening
Source text: Oxazine derivative library nerve-specificity screening. All 64 Oxazine derivatives were screened for nerve specificity using a previously described ex vivo tissue staining assay (Gibbs, S. L., et al., PloS one 8, e73493 (2013)). Ex vivo nerve and muscle tissue fluorescence intensities varied, with many compounds showing minimal nerve or muscle tissue fluorescence above control autofluorescence following Oxazine derivative staining. […] All Oxazine derivatives were further screened for nerve-specificity in vivo using both direct and systemic administration strategies. The direct administration strategy enabled quantification of nerve-specificity and contrast following fluorophore contact with the nerves and surrounding tissues without the requirement of BNB penetration, providing the most similar comparison to ex vivo nerve-specificity screening. The systemic administration screening studies required not only nerve specificity, but also adequate biodistribution and BNB penetration to generate SBR for visualization.

[2] = test system: murine brachial plexus and sciatic nerves; experiment: Nerve-specificity screening using direct/topical administration; assay type: in vivo, mouse; details: 125 μM, imaged 30 minutes after staining
Protocol: All reagents were purchased from Sigma Aldrich, Fisher Scientific, TCI, or Ark Pharm. Unless otherwise indicated, all commercially available starting materials were used directly without further purification. Analytical thin layer chromatography (TLC) was performed on Millipore ready-to-use plates with silica gel 60 (F254, 32-63 μm). Flash chromatography was performed on Sorbent Technologies silica gel for column chromatography or on a Biotage Isolera Flash System using SNAP Ultra cartridges. High-resolution mass spectra (HRMS) were measured on a ThermoElectron LTQ-Orbitrap high resolution mass spectrometer with a dedicated Accela HPLC system, or an Agilent 6244 time-of-flight LCMS with diode array detector VL+. LCMS and Purity Characterization Mass-to-charge ratio and purity of the Oxazine compounds were characterized on an Agilent 6244 time-of-flight tandem liquid chromatography mass spectroscopy (LCMS) with diode array detector VL+. Sample (10 μL) was injected into a C18 column (Poroshell 120, 4.6×50 mm, 2.7 micron), and eluted with a solvent system of A (H2O, 0.1% FA) and B (MeCN, 01.% FA) at 0.4 mL/min, from A/B=90/10 to 5/95 over 10 min, maintained at A/B=5/95 for additional 5 min. Ions were detected in positive ion mode by setting the capillary voltage at 4 kV and gas temperature at 350° C. Purity was calculated through area under the curve analysis of the absorbance at 254 nm. UV-Vis Absorption and Fluorescence Spectroscopy. UV-Vis spectra were collected with a Cary 50 UV-Vis spectrophotometer at room temperature, using a 1-cm quartz cuvette. Fluorescence spectra were collected on a Cary Eclipse fluorescence spectrophotometer (Agilent Technologies). All absorbance spectra were reference corrected. Extinction coefficient was calculated from Beer's Law plots of absorbance versus concentration. Fluorescence spectra were corrected for the wavelength dependent response of the R928 photomultiplier tube using a manufacturer generated correction file. Relative quantum yields are reported as the average of multiple measurements using multiple references, including Oxazine 1, Oxazine 170, and Rhodamine 101. Physicochemical Property Calculation. Physicochemical partition coefficients (Log D) values at pH 7.4, number of hydrogen bond donors and acceptors, polar surface area, and the number of rotatable bonds were calculated using Marvin and JChem calculator plugins (ChemAxon, Budapest, Hungary). Nerve-Specificity Screening using Direct/Topical Administration Each compound was screened for its tissue-specificity using a previously published direct/topical administration strategy in murine brachial plexus and sciatic nerves.^1 Each compound from the Oxazine library was formulated in the previously utilized co-solvent formulation (10% DMSO, 5% Kolliphor, 65% serum and 20% phosphate buffered saline) at 125 μM. 100 μL of the formulated Oxazine were incubated on the exposed brachial plexus or sciatic nerve for 5 minutes. The fluorophore containing solution was removed and the area was irrigated with saline 18 times to remove any unbound fluorophore. Co-registered fluorescence and color images were collected of each stained area 30 minutes after Oxazine direct/topical administration using a custom built macroscopic imaging system with 620/60 nm excitation and 700/75 nm bandpass emission filters. Custom written MatLab code was used to analyze the tissue specific fluorescence where regions of interest were selected on the nerve, muscle and adipose tissue using the white light images. These regions of interest were then analyzed on the co-registered matched fluorescence images permitting assessment of the nerve to muscle and nerve to adipose ratios in blinded manner. […]

[3] = test system: murine brachial plexus and sciatic nerves; experiment: Nerve-specificity screening using systemic administration; assay type: in vivo; details: IV, 200 nmol, 4 hours prior to imaging
[4] = test system: mouse brachial plexus nerves; experiment: Nerve imaging at depth under muscle tissue; assay type: in vivo
Protocol: Nerve imaging at depth studies using a model Oxazine derivative. Oxazine 4 and LGW01-08 were used to stain mouse brachial plexus nerves using both direct and systemic administration methods using the same dose and administration methods previously described. The ability to image the brachial plexus nerve at depth was assessed under varying thicknesses of mouse muscle tissue. Muscle tissue was resected from the peritoneal muscle layer and measured for thickness. One and two layers of resected peritoneal muscle tissue was placed over the stained nerves, providing one and two mm thick homogenous tissue through which the stained nerve tissue was imaged. The same muscle tissue was used to cover the stained nerves from both fluorophores with care taken to orient the muscle in the same way to ensure equivalent comparison. The imaging system configuration was changed to reflect the 700 nm channel in clinically relevant FGS systems (Tummers et al., Eur J Surg Oncol 40, 850-858 (2014); Troyan et al., Ann Surg Oncol 16, 2943-2952 (2009); Ashitate et al., The Journal of surgical research 176, 7-13 (2012); Verbeek et al., The Journal of urology 190, 574-579 (2013); Hillary et al., Langenbecks Arch Surg 403, 111-118 (2018); and Mery et al., Oncotarget 8, 109559-109574 (2017). For fluorescence excitation, the PhotoFluor II was filtered with a 650±22.5 nm bandpass excitation filter. The resulting fluorescence was collected with a 720±30 nm bandpass emission filter for image collection. Camera exposure times ranged from 0.025-4 s for fluorescence image collection.
Image analysis of intraoperative nerve contrast. Custom written MatLab code was used to analyze the tissue specific fluorescence where regions of interest (ROIs) were selected on the nerve, muscle and adipose tissue using the white light images, but blinded to the fluorescence images. These ROIs were then analyzed on the co-registered, matched fluorescence images permitting assessment of the mean tissue intensities as well as the nerve to muscle (N/M) and nerve to adipose (N/A) ratios. Fluorescence intensity measurements were divided by the exposure time to obtain normalized intensity per second measurements. Mean nerve to background tissue ratios (N/M and N/A) were calculated for each Oxazine derivative. For nerve imaging at depth image analysis, fluorescent line profiles and 3-D intensity topographical plots were generated in ImageJ using the plot profile and surface plot functions, respectively. The line profiles were background and exposure time corrected by dividing by the exposure time of each image and subtracting the average intensity of background pixels from the entire line profile. […]

[5] = reported nerve-specific fluorophores; cited from earlier work

Max Abs [1] [nm] | Max Em [1] [nm] | Max Ex [1] [nm] | Extinction coefficient [1] [M⁻¹ cm⁻¹] | Quantum yield [1] [%] | SMILES | ex vivo nerve specificity (N/M SBR vs unstained control group) (nerve and muscle tissue) | nerve specificity (N/M contrast vs control group) via direct administration [2] | nerve specificity / nerve contrast (N/M vs control group) following systemic administration [3] | width of smallest nerve branches distinguished under muscle tissue ([4]; direct administration, under 1 mm of muscle tissue) | thickness of muscle tissue under which nerve tissue could be identified ([4]; following both systemic and direct administration, 700 nm channel filters) [mm] | emission wavelength maximum [5] [nm]
648 | 667 | 650 | 76144 | 9.56 | CN(C)c1ccc2nc3ccc(=[N+](C)C)cc-3oc2c1 [LGW01-39, N-(7-(dimethylamino)-3H-phenoxazin-3-ylidene)-N-methylmethanaminium] | significantly higher N/M SBR compared to the unstained control group |  |  |  |  | 
618 | 634 | 620 | 77156 | 38.37 | CCN=c1cc2oc3cc(NCC)c(C)cc3nc-2cc1C.[O-][Cl+3]([O-])([O-])O [OX-4, reference compound] | lacked nerve-specificity ex vivo |  |  | did not possess the ability to resolve smaller branches | 1 | 635

SMILES | Max Abs [1] [nm] | Max Em [1] [nm] | Max Ex [1] [nm] | Extinction coefficient [1] [M⁻¹ cm⁻¹] | Quantum yield [1] [%] | ex vivo nerve specificity (N/M SBR vs unstained control group) (nerve and muscle tissue) | nerve specificity (N/M contrast vs control group) via direct administration [2] | nerve specificity / nerve contrast (N/M vs control group) following systemic administration [3] | width of smallest nerve branches distinguished under muscle tissue ([4]; direct administration, under 1 mm of muscle tissue) | thickness of muscle tissue under which nerve tissue could be identified ([4]; following both systemic and direct administration, 700 nm channel filters) [mm] | emission wavelength maximum [5] [nm]
CC/N=c1/cc2oc3cc4c(cc3nc-2cc1C)C(C)=CC(C)(C)N4 [LGW01-44, (Z)—N-(2,2,4,8-tetramethyl-1,2-dihydro-9H-pyrido[3,2-b]phenoxazin-9-ylidene)ethanaminium] | 648 | 664 | 650 | 40124 | 21.63 | significantly higher N/M SBR compared to the unstained control group | positive nerve specificity | negative for nerve contrast |  |  | 
